Test results taken from patent US20170166870A1, “HUMAN HEPATIC 3D CO-CULTURE MODEL AND USES THEREOF” (Vrije Universiteit Brussel, priority 2014, published 2017).
Values joined by “and” are separate entries in the source; they are usually repeats but may differ in a detail not shown here. Equal values may be shown once. Read-outs that look alike come from different tables or passages of the source.

Columns and labels:
[1] = test system: 3D HepaRG mono-culture; assay: mRNA expression of HSC activation markers (qPCR) after APAP incubation; assay type: cell-based, human; conditions: 20 mM APAP, 24h, Assays 1-3
Procedure: (§1) APAP toxicity assay was performed in 3D HepaRG/co-culture as well as in 3D HepaRG monoculture. For 24 h, starting at day 20, cells were exposed to a range of APAP concentrations between 0.5 and 80 mM, keeping cells with the solvent (0.1% DMSO) as a control. For some experiments the culture medium was supplemented with 2.5 mM valproic acid (VPA sodium salt, Sigma-Aldrich) or with cytokine mixture (Raicevic et al.,2012)-interleukin (IL)-1β 25 ng/mL (Peprotech, Rocky Hill, N.J., USA), interferon (IFN)-γ 10^3 U/mL, tumor necrosis factor (TNF)-a 50 ng/mL, and IFN-α 3·10^3 U/mL (all from Prospec, Inc., East Brunswick, N.J., USA). For the recovery assay, at the end of APAP incubation, cells were washed using HepaRG culture 0% DMSO medium and kept in the same medium for 3 more days.
(§2) At the end of the incubation period, 5 spheroids per condition were pooled and lysed for RNA analyses, while the remaining spheroids per condition were lysed individually for viability analysis using the Cell titer Glo kit (Promega) for ATP measurements following the instructions of the manufacturer.
(§3) Total RNA was extracted from cells using the ReliaPrep RNA Cell Miniprep System (Promega, Madison, Wis.). Reverse-transcription using the Revert Aid Kit (ThermoFisher Scientific, St. Leon-Rot, Germany) allowed conversion of RNA to cDNA. The RT reaction was performed at 25° C. for ten minutes followed by 30 minutes at 50° C. For quantitative real-time polymerase chain reaction (qPCR), GoTaq QPCR Master Mix with BRYTE green (Promega, Madison, Wis.) was used, subjected to qPCR in a 7500 real time PCR system and analysed using System SDS software v2.0.5 (Applied Biosystems), using GAPDH for normalisation.

[2] = test system: 3D HepaRG/HSC co-culture; assay: as above; assay type: cell-based, human; conditions: additional 3 days in culture upon APAP washout
Procedure: as §1, §2, §3

[3] = test system: 3D HepaRG; conditions: read-out: APAP EC50 values (±stdev), cited from earlier work
[4] = test system: 3D HepaRG/HSC co-culture; assay: APAP toxicity assay, cell viability by ATP (Cell titer Glo); assay type: cell-based, human; conditions: Homo sapiens, 3D HepaRG/HSC, current study, 0% DMSO, read-out: APAP EC50 values (±stdev)
Procedure: as §1, with “For 24 h, starting at day 20, cells were exposed to a range of APAP concentrations between 0.5 and 80 mM, keeping cells with the solvent (0.1% DMSO) as a control.” left out
as §2

[5] = test system: 3D HepaRG mono-culture; assay: Pro-collagen measurement in culture supernatant (Type I C-Peptide); assay type: cell-based, human; conditions: upon APAP incubation, 24 h
Procedure: (§4) Samples for pro-collagen measurement were five times concentrated using 10 kD Vivaspin 500 ultrafiltration columns (VWR, Radnor, Pa.), the resulting supernatant was analysed for the presence of Type I C-Peptide using the TAKARA (Chanteloup-en-Brie, France) kit.

[6] = test system: 3D HepaRG/HSC co-culture; assay: as above; assay type: cell-based, human; conditions: upon APAP incubation, 24 h
Procedure: as §4

[7] = test system: 3D HepaRG/HSC co-culture; assay: Single and repeated exposure, cell viability (% ATP), serum-free medium; assay type: cell-based, human; conditions: Homo sapiens, HepaRG, serum-free medium
Procedure: Culture medium. Day 0 cells were resuspended in HepaRG thawing medium and from day 1 to 21 cells were kept in the HepaRG culture medium 0% DMSO, until day 8. For the repeated versus single compound exposure assays, on day 8, the HepaRG culture medium 0% DMSO was replaced by the Serum-free HepaRG maintenance medium described in Klein et. al. 2013 (HepaRG Induction/Toxicity medium, DMSO 0.5% (v/v), 2 μg/ml of epidermal growth factor and 10 μg/ml of hepatocyte growth factor) and kept in this medium until the end of culture.
Single and repeated exposure. For the single and repeated compound exposure cell spheroids (3D HepaRG/HSC, 3D HepaRG and 3D HSC) were exposed respectively on day 20 for 24 h or every second day from day 8 to day 21 in serum-free medium with no additional solvent. Cells were exposed to a range of 8 concentrations between 0.5 and 80 mM for APAP single-dose, 0.125 and 40 mM for APAP repeated-dose, 0.3 and 500 μM Allyl Alcohol (AA, Sigma-Aldrich), 1.9 and 1000 μM Methotrexate (MTX, Pfizer, NY, USA). For the recovery assay, on day 21, cells were washed using serum-free medium and kept for 3 extra days.
Cell viability assay was performed by measuring ATP production upon individual spheroid exposure to the different concentrations of the test compound. Cell spheroids were lysed individually for viability analysis using the Cell titer Glo kit (Promega) following the instructions of the manufacturer. Luminescence values were converted into percentage of ATP by comparison with controls and converted into dose-response curves using Prism 5 software.

## CC(=O)Nc1ccc(O)cc1 [APAP, Acetaminophen]
[1]
  Col1a1 mRNA fold increase: 4.80 +/− 4.83 fold and 3.01 +/− 0.06 fold
  aSMA mRNA fold increase: 0.69 +/− 0.09 fold and 1.06 +/− 0.13 fold
[2]
  HSC activation markers after washout: decrease of the HSC activation markers
[3]; Day 6/7, Gunness et al. 2013, 2% DMSO
  EC50: 2.7 ± 7.14 mM
[3]; Day 21/22, Gunness et al. 2013, 2% DMSO
  EC50: 10.1 ± 9.9 mM
[4]; 144 h, Day 6/7
  EC50: 10 ± 1.09 mM
[4]; 504 h, Day 21/22
  EC50: 8 ± 4.17 mM
[5]
  collagen secretion (C-terminal pro-collagen in supernatant): not observed
[6]
  collagen secretion (C-terminal pro-collagen in supernatant): significant increase of collagen secretion
[7]; repeated exposure, day 8 to day 21
  EC50: 2.25 ± 0.35 mM
[7]; single exposure, 24 h on day 20
  EC50: 10.4 ± 2.3 mM
